Assay results: PubChem BioAssay AID2060345 (Molecular Pharmacology Branch, DTP, NCI, 2025)

Tested on: MALME-3M multicell spheroids, viability
Assay: Anticancer human tumor MALME-3M cell line growth inhibition [TAK];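 further: spheroids exposed to drugs for seven days before readout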;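 on viability, T/C: 100% = DMSO vehicle control viability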
Settings: for IC50: curve of first compound; for viability, T/C: stronger effect = lower value
Summary of the method: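 Tumor cells were grown as spheroids with HUVEC and hMSC (60:25:15) and treated with targeted agents combined with TAK-243 or ipatasertib. Drugs were tested in half-log steps down from near the clinical Cmax, or from 10 microM where Cmax was unknown.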

[1] = second compound 0.3 µM, first compound 0.316 µM
[2] = second compound 0.3 µM, first compound 1 µM
[3] = second compound 0.3 µM, first compound 3.16 µM
[4] = second compound 0.3 µM, first compound 10 µM
[5] = second compound 0.949 µM, first compound 0.316 µM
[6] = second compound 0.949 µM, first compound 1 µM
[7] = second compound 0.949 µM, first compound 3.16 µM
[8] = second compound 0.949 µM, first compound 10 µM
[9] = second compound 3 µM, first compound 0.316 µM
[10] = second compound 3 µM, first compound 1 µM
[11] = second compound 3 µM, first compound 3.16 µM
[12] = second compound 3 µM, first compound 10 µM
[13] = second compound 9.49 µM, first compound 0.316 µM
[14] = second compound 9.49 µM, first compound 1 µM
[15] = second compound 9.49 µM, first compound 3.16 µM
[16] = second compound 9.49 µM, first compound 10 µM
[17] = second compound 30 µM, first compound 0.316 µM
[18] = second compound 30 µM, first compound 1 µM
[19] = second compound 30 µM, first compound 3.16 µM
[20] = second compound 30 µM, first compound 10 µM

SMILES | IC50 (second compound 0.3 µM) [nM] | IC50 (second compound 0.949 µM) [nM] | IC50 (second compound 3 µM) [nM] | IC50 (second compound 9.49 µM) [nM] | IC50 (second compound 30 µM) [nM] | viability, T/C [1] [%] | viability, T/C [2] [%] | viability, T/C [3] [%] | viability, T/C [4] [%] | viability, T/C [5] [%] | viability, T/C [6] [%] | viability, T/C [7] [%] | viability, T/C [8] [%] | viability, T/C [9] [%] | viability, T/C [10] [%] | viability, T/C [11] [%] | viability, T/C [12] [%] | viability, T/C [13] [%] | viability, T/C [14] [%] | viability, T/C [15] [%] | further results
CCCS(=O)(=O)Nc1ccc(F)c(C(=O)c2c[nH]c3ncc(-c4ccc(Cl)cc4)cc23)c1F + CC(C)NCC(C(=O)N1CCN(c2ncnc3c2C(C)CC3O)CC1)c1ccc(Cl)cc1 | < 316 | < 316 | < 316 | < 316 | < 316 | 29.3 | 21.5 | 23.6 | 19.3 | 31.8 | 25.8 | 23.6 | 22.1 | 30 | 24.9 | 21.4 | 15.9 | 24.8 | 20.6 | 17.9 | viability, T/C (second compound 0.3 µM, first compound 31.6 µM): 0.51%; viability, T/C (second compound 0.3 µM, first compound 100 µM): 11.1%; viability, T/C (second compound 0.949 µM, first compound 31.6 µM): 2.72%; viability, T/C (second compound 0.949 µM, first compound 100 µM): 12.1%; viability, T/C (second compound 3 µM, first compound 31.6 µM): 1.69%; viability, T/C (second compound 3 µM, first compound 100 µM): 3.88%; viability, T/C [16]: 10.8%; viability, T/C (second compound 9.49 µM, first compound 31.6 µM): 0.89%; viability, T/C (second compound 9.49 µM, first compound 100 µM): 1.65%; viability, T/C [17]: 15.1%; viability, T/C [18]: 16.4%; viability, T/C [19]: 9.92%; viability, T/C [20]: 0.89%; viability, T/C (second compound 30 µM, first compound 31.6 µM): 0.35%; viability, T/C (second compound 30 µM, first compound 100 µM): 0.54%
CC(C)(C)c1nc(-c2cccc(NS(=O)(=O)c3c(F)cccc3F)c2F)c(-c2ccnc(N)n2)s1 + CC(C)NCC(C(=O)N1CCN(c2ncnc3c2C(C)CC3O)CC1)c1ccc(Cl)cc1 | < 31.6 | < 31.6 | < 31.6 | < 31.6 | < 31.6 | 25 | 25.8 | 22.2 | 29.6 | 23.2 | 24.8 | 20.6 | 26.2 | 21.3 | 20.1 | 15.4 | 21.5 | 19.5 | 15.6 | 14.1 | viability, T/C (second compound 0.3 µM, first compound 0.0316 µM): 26.6%; viability, T/C (second compound 0.3 µM, first compound 0.1 µM): 23.6%; viability, T/C (second compound 0.949 µM, first compound 0.0316 µM): 27.1%; viability, T/C (second compound 0.949 µM, first compound 0.1 µM): 26.2%; viability, T/C (second compound 3 µM, first compound 0.0316 µM): 25.4%; viability, T/C (second compound 3 µM, first compound 0.1 µM): 26.8%; viability, T/C (second compound 9.49 µM, first compound 0.0316 µM): 23%; viability, T/C (second compound 9.49 µM, first compound 0.1 µM): 21%; viability, T/C [16]: 17.1%; viability, T/C (second compound 30 µM, first compound 0.0316 µM): 17.1%; viability, T/C (second compound 30 µM, first compound 0.1 µM): 18.4%; viability, T/C [17]: 18.5%; viability, T/C [18]: 11.4%; viability, T/C [19]: 8.12%; viability, T/C [20]: 11.6%
